Measured values taken from patent US12239711B2, “Cereblon ligands and bifunctional compounds comprising the same” (Arvinas Operations, Inc., priority 2014, dated 2025).
pIC50: −log10 of the molar value. Read-outs that look alike come from different tables or passages of the source.

Assays:
[1] = molecular target: T1, Estrogen Receptor-Alpha (ERα) (Homo sapiens, UniProt P03372); test: Estrogen Receptor-Alpha (ERα) degradation assay in MCF-7 cells (western blot / In-Cell Western); type: cell-based; details: for Dmax: MCF7, read-out: ER Dmax; for DC50: read-out: ER DC50
T1 construct: endogenous in cells; host or cells: MCF-7 (MCF7) cells
T1 sequence (P03372 1-595): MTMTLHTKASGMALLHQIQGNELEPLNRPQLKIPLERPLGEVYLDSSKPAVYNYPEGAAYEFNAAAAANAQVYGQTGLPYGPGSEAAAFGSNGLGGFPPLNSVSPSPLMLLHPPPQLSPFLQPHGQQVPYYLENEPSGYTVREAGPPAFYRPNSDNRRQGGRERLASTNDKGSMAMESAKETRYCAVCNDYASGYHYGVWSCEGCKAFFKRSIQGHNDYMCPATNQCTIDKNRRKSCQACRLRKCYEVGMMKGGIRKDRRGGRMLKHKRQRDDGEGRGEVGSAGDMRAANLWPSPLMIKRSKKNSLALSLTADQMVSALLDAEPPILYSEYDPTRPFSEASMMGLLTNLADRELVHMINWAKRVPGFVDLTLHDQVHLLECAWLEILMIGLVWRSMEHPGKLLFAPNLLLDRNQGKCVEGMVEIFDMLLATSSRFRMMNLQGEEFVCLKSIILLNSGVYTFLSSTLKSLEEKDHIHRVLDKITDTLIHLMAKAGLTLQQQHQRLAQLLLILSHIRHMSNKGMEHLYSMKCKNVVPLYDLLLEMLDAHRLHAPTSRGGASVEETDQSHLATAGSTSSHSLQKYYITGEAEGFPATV
Protocol: 2. Estrogen Receptor-Alpha (ERα) Degradation Assay in MCF-7 Cells Using Western Blot Method for Table 5.
The exemplary novel ERα degraders were assessed for their activity in degrading ERα in MCF-7 cells via western blot. The assay was carried out in the presence of 10% FBS or high percentage of human or mouse serum. Protocols of the western blot assay are described below.
MCF7 cells were grown in DMEM/F12 with 10% FBS and seeded at 24,000 cells per well in 100 μl into 96-well clear tissue culture plates. The following day, the cells were treated with PROTACs in a […] concentration curve with 100 nM being the top concentration and serial dilutions to make the other concentrations (30 nM, 10 nM, 3 nM, 1 nM, and 0.3 nM). At all concentrations, 0.01% DMSO is the final concentration in the well. The following day, the plates are aspirated, washed with 50 μl of cold PBS. The cells are lysed with 50 μl/well 4° C. Cell Lysis Buffer (Catalog #9803; Cell Signaling Technology, Danvers, MA) (20 mM Tris-HCL (pH 7.5), 150 mM NaCl, 1 mM Na2EDTA, 1 mM EGTA, 1% Triton, 2.5 mM sodium pyrophosphate, 1 mM B-glycerophosphate, 1 mM sodium vanadate, 1 ug/ml leupeptin). Lysates were clarified at 16,000×g for 10 minutes, and 2 μg of protein was subjected to SDS-PAGE analysis and followed by immunoblotting according to standard protocols. The antibodies used were ERα (Cell Signaling Technologies Catalog #8644), and Tubulin (Sigma Catalog #T9026; St. Louis, MO). Detection reagents were Clarity Western ECL substrate (Bio-Rad Catalog #170-5060; Hercules, CA).
Alternatively, MCF7 cells were grown in DMEM/F12 with 10% FBS and seeded at 24,000 cells per well in 500 μl in 24-well clear tissue culture plates. The following day, the cells were treated with PROTACs in a 5-point concentration curve (100 nM, 33 nM, 11 nM, 3.7 nM, and 1.2 nM) in the presence of 0.01% DMSO. After 72 hours, the wells are aspirated and washed with 500 μl of PBS. The cells are lysed with 100 μl/well 4° C. Cell Lysis Buffer (Catalog #9803; Cell Signaling Technology, Danvers, MA) (20 mM Tris-HCL (pH 7.5), 150 mM NaCl, 1 mM Na2EDTA, 1 mM EGTA, 1% Triton, 2.5 mM sodium pyrophosphate, 1 mM B-glycerophosphate, 1 mM sodium vanadate, 1 ug/ml leupeptin). Lysates were clarified at 16,000×g for 10 minutes, and 2 μg of protein was subjected to SDS-PAGE analysis and followed by immunoblotting according to standard protocols. The antibodies used were ERα (Cell Signaling Technologies Catalog #8644), and Tubulin (Sigma Catalog #T9026; St. Louis, MO). Detection reagents were Clarity Western ECL substrate (Bio-Rad Catalog #170-5060; Hercules, CA).
3. Estrogen Receptor-Alpha (ERα) Degradation Assay Using In-Cell Western™ Assay for Table 5.
Degradation of ERα by claimed compounds were determined in MCF7 cells using an In-Cell Western™ assay. Briefly, MCF7 cells were plated in 96-well plates (2000 cells per well in 100 μl media) and incubated at 37° C. under an atmosphere of 5% CO2 in a humidified incubator overnight. One-hundred (100) μl of media containing test compound (at 2× concentration) was added to the appropriate wells to provide 11 serially decreasing concentrations (top final concentration, 1 μM then 3-fold less for the next 10 concentrations); a vehicle control (DMSO) was also added for each compound. For each experiment, all compounds were assayed in duplicate plates. Cells were then incubated for 3 or 5 days in the above-mentioned environment. The assay was terminated by removal of media, a single wash with ice-cold PBS and the addition of 50 μl paraformaldehyde (PFA: 4% in PBS). After 15 minutes in PFA at room temperature, the cells were permeabilized in Tris-phosphate-buffered saline with Tween (0.1%) (TBST) supplemented with Triton X-100 (0.5%) for 15 minutes. Cells were then blocked in BSA (TBST with BSA, 3%) for one hour. […]

[2] = test system: estrogen responsive element/promoter/luciferase reporter gene; test: ERE Luciferase Assay in T47D-KBluc cells; type: cell-based, human; details: 24 hours, luciferase activity, read-out: Target Engagement IC50
Protocol: 1. ERE Luciferase Assay for Compounds in Table 5.
T47D-KBluc cells (ATCC® #CRL_2865, T47D human breast cancer cells stably transfected with estrogen responsive element/promoter/luciferase reporter gene) were seeded into 96-well white opaque plates in RPMI growth medium supplemented with 10% fetal bovine serum (FBS) and allowed to adhere overnight in a 37° C. humidified incubator. The following day, cells were treated with PROTACs in a 12-point concentration curve (top final concentration of 300 nM with subsequent concentrations being 3-fold less with 2 pM being the lowest concentration in the assay). Each PROTAC was tested independently in two experiments on 96-well plates. After 24 hours, media was removed and lysis buffer was added to the wells. Following lysis, Bright-Glo™ Luciferase Assay Substrate (Promega, Madison WI) was added and the luciferase activity was measured using a Cytation 3 plate reader (BioTek™, Winooski, VT). Each compound was assayed in duplicate and the activity was calculated as IC50 using GraphPad Prism software (San Diego, CA).

Compound	Dmax [1]	DC50 [1]	pIC50 ([2]; Homo sapiens)	ER Dmax [1]	pIC50 [2]
COCCOc1c(N2CCN(CC3CCN(c4ccc([C@@H]5c6ccc(O)cc6CC[C@@H]5c5ccccc5)cc4)CC3)CC2)ccc2c1CN(C1CCC(=O)NC1=O)C2=O (stereo partly drawn) [compound 11, 3-[5-[4-[[1-[4-[(1R,2S)-6-hydroxy-2-phenyl-tetralin-1-yl]phenyl]-4-piperidyl]methyl]piperazin-1-yl]-4-(2-methoxyethoxy)-1-oxo-isoindolin-2-yl]piperidine-2,6-dione]	50 to 75%	1 to 10 nM	8.70		
COc1cc(N2CCN(CCCC(F)(F)COc3ccc([C@@H]4c5ccc(O)cc5CC[C@@H]4c4ccccc4)cc3)CC2)cc2c1C(=O)N(C1CCC(=O)NC1=O)C2 (stereo partly drawn) [compound 12, 3-[5-[4-[4,4-difluoro-5-[4-[(1R,2S)-6-hydroxy-2-phenyl-tetralin-1-yl]phenoxy]pentyl]piperazin-1-yl]-7-methoxy-1-oxo-isoindolin-2-yl]piperidine-2,6-dione]	≥ 75%	< 1 nM	9.00		
COc1cc(N2CCN(CCCCCOc3ccc([C@@H]4c5ccc(O)cc5CC[C@@H]4c4ccccc4)cc3)CC2)cc2c1C(=O)N([C@@H]1CCC(=O)NC1=O)C2 [compound 13, (3R)-3-[5-[4-[5-[4-[(1R,2S)-6-hydroxy-2-phenyl-tetralin-1-yl]phenoxy]pentyl]piperazin-1-yl]-7-methoxy-1-oxo-isoindolin-2-yl]piperidine-2,6-dione]	≥ 75%	< 1 nM	9.43		
COc1cc(N2CCN(CCCCCOc3ccc([C@@H]4c5ccc(O)cc5CC[C@@H]4c4ccccc4)cc3)CC2)cc2c1C(=O)N([C@H]1CCC(=O)NC1=O)C2 [compound 14, (3S)-3-[5-[4-[5-[4-[(1R,2S)-6-hydroxy-2-phenyl-tetralin-1-yl]phenoxy]pentyl]piperazin-1-yl]-7-methoxy-1-oxo-isoindolin-2-yl]piperidine-2,6-dione]	≥ 75%	< 1 nM	9.31		
COc1cc(N2CCN(CC3CCN(c4ccc([C@@H]5c6ccc(O)cc6CC[C@@H]5c5ccccc5)cc4)CC3)CC2)cc2c1C(=O)N(C1CCC(=O)NC1=O)C2 (stereo partly drawn) [compound 15, 3-[5-[4-[[1-[4-[(1R,2S)-6-hydroxy-2-phenyl-tetralin-1-yl]phenyl]-4-piperidyl]methyl]piperazin-1-yl]-7-methoxy-1-oxo-isoindolin-2-yl]piperidine-2,6-dione]	≥ 75%	< 1 nM	8.77		
COc1cc(N2CCN(C3CC4CC(Oc5ccc([C@@H]6c7ccc(O)cc7CC[C@@H]6c6ccc(F)cc6)cc5)CC4C3)CC2)cc2c1C(=O)N(C1CCC(=O)NC1=O)C2 (stereo partly drawn) [compound 16, 3-[5-[4-[5-[4-[(1R,2S)-2-(4-fluorophenyl)-6-hydroxy-tetralin-1-yl]phenoxy]-1,2,3,3a,4,5,6,6a-octahydropentalen-2-yl]piperazin-l-yl]-7-methoxy-1-oxo-isoindolin-2-yl]piperidine-2,6-dione]		< 1 nM		B (50 <= B < 75)	9.09
COc1cc(N2CCN(Cc3cccc(COc4ccc([C@@H]5c6ccc(O)cc6CC[C@@H]5c5ccccc5)cc4)n3)CC2)cc2c1C(=O)N(C1CCC(=O)NC1=O)C2 (stereo partly drawn) [compound 17, 3-[5-[4-[[6-[[4-[(1R,2S)-6-hydroxy-2-phenyl-tetralin-1-yl]phenoxy]methyl]-2-pyridyl]methyl]piperazin-1-yl]-7-methoxy-1-oxo-isoindolin-2-yl]piperidine-2,6-dione]	50 to 75%	1 to 10 nM	8.82		
COc1cc(N2CCN(CC3CCN(c4c(F)cc([C@H]5c6ccc(O)cc6CC[C@H]5c5ccccc5)cc4F)CC3)CC2)cc2c1C(=O)N(C1CCC(=O)NC1=O)C2 (stereo partly drawn) [compound 18, 3-(5-{4-[(1-{2,6-difluoro-4-[(1S,2R)-6-hydroxy-2-phenyl-1,2,3,4-tetrahydronaphthalen-1-yl]phenyl}piperidin-4-yl)methyl]piperazin-1-yl}-7-methoxy-1-oxo-2,3-dihydro-1H-isoindol-2-yl)piperidine-2,6-dione]	50 to 75%	1 to 10 nM	7.76		
COc1cc(N2CCN(CC3CCN(c4c(F)cc([C@@H]5c6ccc(O)cc6CC[C@@H]5c5ccccc5)cc4F)CC3)CC2)cc2c1C(=O)N(C1CCC(=O)NC1=O)C2 (stereo partly drawn) [compound 19, 3-(5-(4-((1-(2,6-difluoro-4-((1R,2S)-6-hydroxy-2-phenyl-1,2,3,4-tetrahydronaphthalen-1-yl)phenyl)piperidin-4-yl)methyl)piperazin-1-yl)-7-methoxy-1-oxoisoindolin-2-yl)piperidine-2,6-dione]	≥ 75%	1 to 10 nM	8.35		
O=C1CCC(N2Cc3cc(N4CCN(CCCCCOc5ccc([C@@H]6c7ccc(O)cc7CC[C@@H]6c6ccccc6)cc5)CC4)cc(OC(F)F)c3C2=O)C(=O)N1 (stereo partly drawn) [compound 20, 3-[7-(difluoromethoxy)-5-[4-[5-[4-[(1R,2S)-6-hydroxy-2-phenyl-tetralin-1-yl]phenoxy]pentyl]piperazin-1-yl]-1-oxo-isoindolin-2-yl]piperidine-2,6-dione]	50 to 75%	1 to 10 nM	8.92		
O=C1CCC(N2Cc3cc(N4CCN(CCCC(F)(F)COc5ccc([C@@H]6c7ccc(O)cc7CC[C@@H]6c6ccccc6)cc5)CC4)cc(OC(F)F)c3C2=O)C(=O)N1 (stereo partly drawn) [compound 21, 3-[5-[4-[4,4-difluoro-5-[4-[(1R,2S)-6-hydroxy-2-phenyl-tetralin-1-yl]phenoxy]pentyl]piperazin-1-yl]-7-(difluoromethoxy)-1-oxo-isoindolin-2-yl]piperidine-2,6-dione]	50 to 75%	1 to 10 nM	8.60		
